According to PubChem BioAssay (NCI):
Where “and” joins values, the source holds several entries; their conditions need not be identical. Equal entries are not always repeated.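 In this assay, cells in 96-well plates receive the compound at five concentrations for 48 hours. Endpoints are linearly interpolated between the surrounding concentrations. GI50 marks 50% less growth. TGI: concentration producing complete growth inhibition.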

Experiments:
Assay in all cases: inhibition of tumour cell growth, NCI panel, 48 h
SF-539 CNS = test system: SF-539 CNS
COLO 205 colon = test system: COLO 205 colon
MALME-3M melanoma = test system: MALME-3M melanoma
MDA-MB-435 = test system: MDA-MB-435
UACC-257 melanoma = test system: UACC-257 melanoma
TK-10 renal = test system: TK-10 renal
ACHN renal = test system: ACHN renal
BT-549 breast = test system: BT-549 breast
SF-295 CNS = test system: SF-295 CNS
OVCAR-4 ovarian = test system: OVCAR-4 ovarian

Row | SMILES | GI50 (SF-539 CNS) | TGI (SF-539 CNS) | GI50 (COLO 205 colon) | TGI (COLO 205 colon) | GI50 (MALME-3M melanoma) | TGI (MALME-3M melanoma) | GI50 (MDA-MB-435) | TGI (MDA-MB-435) | GI50 (UACC-257 melanoma) | TGI (UACC-257 melanoma) | GI50 (TK-10 renal) | TGI (TK-10 renal) | GI50 (ACHN renal) | TGI (ACHN renal) | GI50 (BT-549 breast) | TGI (BT-549 breast) | GI50 (SF-295 CNS) | TGI (SF-295 CNS) | GI50 (OVCAR-4 ovarian) | TGI (OVCAR-4 ovarian)
1 | O=C(Nc1cccc(-n2cc(-c3ccncc3)c(-c3ccc(O)c(Cl)c3)n2)c1)Nc1ccc(Cl)c(Cl)c1 | 1.57 µM | 4.87 µM | 2.5 µM | 6.23 µM | 2.11 µM | 6.86 µM | 1.96 µM | 5.92 µM | 2.02 µM | 5.13 µM | 2.83 µM | 7.56 µM | 2.02 µM | 7.81 µM | 1.8 µM | 4.32 µM | 2.29 µM | 7.27 µM | 2.4 µM | 9.5 µM
2 | CN(c1ccc(NC(=O)NCCN2CCOCC2)cc1)c1ccnc(Nc2ccc(CS(C)(=O)=O)cc2)n1 | > 21.4 µM | > 25 µM | > 16.8 µM | > 25 µM | > 25 µM | > 25 µM | > 25 µM | > 25 µM | > 25 µM | > 25 µM | > 25 µM | > 25 µM | > 25 µM | > 25 µM | > 25 µM | > 25 µM | > 25 µM | > 25 µM | 19.8 µM | > 25 µM
3 | COc1cc2c3c(n(CCCN4CCSCC4)c(=O)c2cc1OC)-c1cc2c(cc1C3=O)OCO2 | 18.2 µM | 34.5 µM | > 100 µM | > 100 µM | 67.5 µM | > 100 µM | > 100 µM | > 100 µM | > 100 µM | > 100 µM | 27.2 µM | 82.9 µM | 58.6 µM | > 100 µM | 56.7 µM | > 100 µM | 19 µM | > 100 µM | > 100 µM | > 100 µM
4 | N=C(N)c1ccc(OCCCCCOc2ccc(C(=N)N)cc2)cc1 | 8.36 µM | 20.7 µM and 27.1 µM | 2.18 µM and 5.19 µM and 11.9 µM | 8.57 µM and 18.4 µM and 29.1 µM | 1.81 µM | 8.4 µM and 35.3 µM | 3.99 µM | 13.4 µM and 23.2 µM and 42.9 µM | 4.44 µM and 7.51 µM and 15.5 µM | 26.3 µM and 23.7 µM and 48.9 µM | 8.49 µM | 18.9 µM and 27.6 µM and 48.3 µM | 18.5 µM | > 50 µM and 79.2 µM and > 100 µM | 6.65 µM and 3.41 µM and 11.1 µM | 14.1 µM and 16 µM and 25.3 µM | – | 19.7 µM and 21.3 µM and 77.1 µM | 3.6 µM | 18.7 µM and 35.4 µM and 53.5 µM
5 | CC(C)C/C(=N\NC(=O)c1ccncc1)c1cc(Cl)ccc1O | 0.363 µM | 5.58 µM | 0.354 µM | 14.4 µM | 1.65 µM | 16.7 µM | 0.682 µM | 44.9 µM | 0.41 µM | 6.62 µM | 0.348 µM | > 100 µM | 0.157 µM | > 41.1 µM | 0.922 µM | > 25.6 µM | 0.256 µM | 13.2 µM | 0.26 µM | > 32.4 µM
6 | O=S(=O)(NCCCNc1nccc(-c2c(-c3cccc(F)c3)nc3occn23)n1)c1cccc2ccccc12 | > 100 µM | > 100 µM | 4.64 µM | > 100 µM | 5.24 µM | > 100 µM | 3.75 µM | > 100 µM | 21 µM | > 100 µM | 11 µM | > 100 µM | 3.64 µM | > 100 µM | 4.44 µM | > 100 µM | 5.5 µM | > 100 µM | 7.66 µM | > 100 µM
7 | O=C(/C=C/c1cccc(Oc2ccc(Cl)cc2)c1)c1ccccc1 | 21.3 µM | 53.2 µM | 63.4 µM | 283 µM | 38.3 µM | 175 µM | 21.9 µM | 50.9 µM | 185 µM | 344 µM | 192 µM | 342 µM | 16.9 µM | 31.7 µM | 31.6 µM | 97.5 µM | 60 µM | 196 µM | 75 µM | 234 µM
8 | Cc1nn2c(-c3nc4cc(Cl)c(Cl)cc4[nH]3)c(-c3ccc(F)cc3)nc2s1 | 2.53 µM | 11.1 µM | > 70.2 µM | > 100 µM | 3.23 µM | 15 µM | 4.65 µM | > 100 µM | 8.16 µM | > 100 µM | 2.19 µM | 4.69 µM | 1.7 µM | 5.25 µM | 8.57 µM | > 100 µM | 4.92 µM | > 42.8 µM | 0.257 µM | 0.781 µM
9 | N#Cc1cccc(C2C3=C(COC3=O)N(CCO)c3cc4c(cc32)CCC4)c1 (centres undefined) | 0.112 µM | 0.356 µM | 0.146 µM | 1.28 µM | 0.173 µM | > 50 µM | 0.0171 µM | 0.0662 µM | > 50 µM | > 50 µM | 0.436 µM | > 50 µM | 0.277 µM | > 50 µM | 0.182 µM | 5.35 µM | 0.0716 µM | > 50 µM | 0.374 µM | > 50 µM
10 | C=CC[PH+](c1ccccc1)c1ccccc1.C=CC[PH+](c1ccccc1)c1ccccc1.[Pt+2].[S-]c1ncccn1.[S-]c1ncccn1 | 21.4 µM | 52.3 µM | 5.24 µM | 26.9 µM | 2.5 µM | 10.4 µM | 16.3 µM | 33.8 µM | 11.6 µM | 37.2 µM | 5.8 µM | 46.2 µM | 2.14 µM | 5.31 µM | 25.1 µM | > 100 µM | > 100 µM | > 100 µM | 5.35 µM | > 100 µM
11 | CCN(CC)CCS(=O)(=O)CCNc1ccnc2cc(Cl)ccc12 | 2.93 µM | 14.3 µM | 2.66 µM | 8.31 µM | 2.15 µM | 13.3 µM | 1.65 µM | > 20.5 µM | 5.13 µM | 26.1 µM | 1.07 µM | 4.3 µM | 1.49 µM | 29.8 µM | 2.94 µM | 9.62 µM | 8.38 µM | > 64 µM | 2.07 µM | > 62.2 µM
12 | Nc1n[nH]c2ccc([C@@H]3Nc4c(F)cc5[nH]ncc5c4[C@H]4C5CCC(C5)[C@@H]34)cc12 (some centres undefined) | 0.157 µM | 0.598 µM | 0.337 µM | 1.67 µM | 1.38 µM | > 57.9 µM | 0.0327 µM | 0.161 µM | 7.78 µM | > 79.3 µM | 5.6 µM | > 79.4 µM | 0.912 µM | > 64.7 µM | 0.374 µM | > 31.8 µM | 0.11 µM | 18.4 µM | 5.81 µM | > 85.8 µM
